Patent US4148795A, “Dithiocarbamate ester bactericides and fungicides” (American Cyanamid Company, priority 1976, dated 1979)
“And” between values parts separate entries of the source, which are not always exact repeats. Identical values can stand only once. Like-named read-outs stand apart in the source and are kept apart here.

What was measured:
[1] = test system: Collectotrichum lagenarium; assay: Agar dilution plate; format: cell-based; details: Cl; 100 ppm, 72 hours at 23° C
Experimental: (§1) Test compounds were incorporated in a Sabouraud's dextrose agar in an amount sufficient to provide the active ingredient in a concentration of about 100 ppm. A twenty-ml. sample of the agar mixture is placed in a petri dish and permitted to solidify. An agar sample is inoculated with the test organism set forth below and then covered and incubated for a period of about 72 hours at 23° C. After incubation, growth observations are made. The test results are recorded and the test is repeated twice for the purpose of comparison.
(§2) The data obtained with a variety of test organisms is shown in the table below, and ratings are shown as 0 or 5. O indicates no control, 5 indicates 100% effectiveness of the test compound against the specified organism.
Cl= Collectotrichum lagenarium

Venturia inaequalis = details: in vivo; further: key: 5: clean, no disease; 4: trace of disease; 3: slight disease; 2: moderate disease; 1: severe disease; 0: like controls
Monilinia fructicola [2] = assay: Spore germination inhibition; format: cell-based; details: for inhibition at 1 ppm / inhibition at 10 ppm: 24 hours; for inhibition at 100 ppm: 24 h, read-out: % Inhibition of Spore Germination
From the text: (§3) The test procedure involves the preparation of a 100, 10 or 1 ppm. suspension of test compound in water. The solutions are placed in one dram "opticlear" vials and separately inoculated with one drop of a spore suspension prepared from seven-day cultures of Aspergillus niger and 14-day old cultures of Monilinia fructicola and Stemphylium sarcinaeforme,all grown on potato-dextrose agar. The vials containing the separately inoculated solutions of test compounds are then capped and placed on a rotating tumbler for 24 hours to assure contact of the organism with the test compound. After 24 hours, the vials are removed and examined for inhibition of […].

Aspergillus niger [3] = assay: Spore germination inhibition; format: cell-based; details: 24 hours
From the text: as §3

[4] = test system: Stemphylium sarcinaeforme; assay: Spore germination inhibition; format: cell-based; details: Stemphylium sarciniforme; for inhibition at 100 ppm: 24 h, read-out: % Inhibition of Spore Germination; for inhibition at 1 ppm / inhibition at 10 ppm: 24 hours
From the text: as §3

Verticillium albo-atrum = assay: Agar dilution plate; format: cell-based; details: Va; 100 ppm, 72 hours at 23° C
Experimental: as §1, §2
Va= Verticillium albo-atrum

Pythium de Baryanum = assay: Agar dilution plate; format: cell-based; details: Pd; 100 ppm, 72 hours at 23° C
Experimental: as §1, §2

Monilinia fructicola [5] = assay: Agar dilution plate; format: cell-based; details: Mf; 100 ppm, 72 hours at 23° C
Experimental: as §1, §2

Fusarium lycopersici = assay: Agar dilution plate; format: cell-based; details: Fl; 100 ppm, 72 hours at 23° C
Experimental: as §1, §2

Rhizoctonia solani = assay: Agar dilution plate; format: cell-based; details: Rs; 100 ppm, 72 hours at 23° C
Experimental: as §1, §2

Aspergillus niger [6] = assay: Agar dilution plate; format: cell-based; details: An; 100 ppm, 72 hours at 23° C
Experimental: as §1, §2

Phytophthora infestans = format: in vivo; design: scale not given here; details: Tomato Late Blight, five days
Pseudomonas solaracaerum = format: cell-based; details: 100 ppm, 72 hours at 23° C
Piricularia oryzae = format: in vivo; design: scale not given here; details: Rice Blast, five days
Staphylococcus aureus = format: cell-based; details: 100 ppm; subcultures 72 hours at 37° C; further: key: 0: No Effect; 9: Kill of Bacteria; 5: Stasis, but not Kill of all Bacteria
Xanthomonas vesicatoria = format: cell-based; details: 100 ppm; subcultures 72 hours at 37° C; further: key: 0: No Effect; 9: Kill of Bacteria; 5: Stasis, but not Kill of all Bacteria
[7] = test system: Stemphylium sarcinaeforme; assay: Agar dilution plate; format: cell-based; details: Ss; 100 ppm, 72 hours at 23° C
Experimental: as §1, §2
Ss= Stemphylium sarcinaeforme

Aerobacter aerogenes = format: cell-based; details: 100 ppm; subcultures 72 hours at 37° C; further: key: 0: No Effect; 9: Kill of Bacteria; 5: Stasis, but not Kill of all Bacteria

In the case of `CN(C)C(=S)SCC(CSC(=S)N(C)C)[N+](=O)[O-]` [Example 1, 2-Nitrotrimethylene Dimethyldithiocarbamate], the “Agar Dilution Plate rating” value [1] is reported as 5 (100% effectiveness of the test compound against the specified organism), the disease control index (Venturia inaequalis) is reported as 3 and 0 and the inhibition at 1 ppm (Monilinia fructicola [2]) is reported as 100%. It also gave an inhibition at 10 ppm (Monilinia fructicola [2]) of 100%, an inhibition at 100 ppm (Monilinia fructicola [2]) of 100% and an inhibition at 1 ppm (Aspergillus niger [3]) of 100%. It also gave an inhibition at 10 ppm (Aspergillus niger [3]) of 100%, an inhibition at 100 ppm (Aspergillus niger [3]) of 100% and an inhibition at 100 ppm [4] of 100%. The inhibition at 1 ppm [4] was 100%, the inhibition at 10 ppm [4] was 100% and the “Agar Dilution Plate rating” value (Verticillium albo-atrum) was 0. For the same molecule, the “Agar Dilution Plate rating” value (Pythium de Baryanum) was 0, the “Agar Dilution Plate rating” value (Monilinia fructicola [5]) was 5 (100% effectiveness of the test compound against the specified organism) and the “Agar Dilution Plate rating” value (Fusarium lycopersici) was 0. For the same molecule, the “Agar Dilution Plate rating” value (Rhizoctonia solani) was 0, the “Agar Dilution Plate rating” value (Aspergillus niger [6]) was 0 and the disease control index (Phytophthora infestans; 150 ppm) was 3. The disease control index (Phytophthora infestans; 300 ppm) was 4, the disease control index (Phytophthora infestans; 600 ppm) was 4 and the disease control index (Phytophthora infestans; 1200 ppm) was 5. For the same molecule, the “Agar Dilution Plate rating” value (Pseudomonas solaracaerum) was 0, the disease control index (Piricularia oryzae; 150 ppm) was 2 and the disease control index (Piricularia oryzae; 300 ppm) was 2. The disease control index (Piricularia oryzae; 600 ppm) was 3, the disease control index (Piricularia oryzae; 1200 ppm) was 3 and the “Antibacterial Activity rating” value (Staphylococcus aureus) was 5. For the same molecule, the “Antibacterial Activity rating” value (Xanthomonas vesicatoria) was 0, the “Agar Dilution Plate rating” value [7] was 5 (100% effectiveness of the test compound against the specified organism) and the “Antibacterial Activity rating” value (Aerobacter aerogenes) was 0.
For `COc1ccc(C(C[N+](=O)[O-])SC(=S)N(C)C)cc1OC` (stereo not drawn) [Example 25, 3,4-Dimethoxy-α-(nitromethyl)benzyl Dimethyldithiocarbamate], the “Agar Dilution Plate rating” value [1] was 5 (100% effectiveness of the test compound against the specified organism), the disease control index (Venturia inaequalis) was 5 and the inhibition at 1 ppm (Monilinia fructicola [2]) was 0%. It also gave an inhibition at 10 ppm (Monilinia fructicola [2]) of 100%, an inhibition at 100 ppm (Monilinia fructicola [2]) of 100% and an inhibition at 1 ppm (Aspergillus niger [3]) of 0%. It also gave an inhibition at 10 ppm (Aspergillus niger [3]) of 100%, an inhibition at 100 ppm (Aspergillus niger [3]) of 100% and an inhibition at 100 ppm [4] of 100%. For the same molecule, the inhibition at 1 ppm [4] was 100%, the inhibition at 10 ppm [4] was 100% and the “Agar Dilution Plate rating” value (Verticillium albo-atrum) was 5 (100% effectiveness of the test compound against the specified organism). For the same molecule, the “Agar Dilution Plate rating” value (Pythium de Baryanum) was 5 (100% effectiveness of the test compound against the specified organism), the “Agar Dilution Plate rating” value (Monilinia fructicola [5]) was 5 (100% effectiveness of the test compound against the specified organism) and the “Agar Dilution Plate rating” value (Fusarium lycopersici) was 0. For the same molecule, the “Agar Dilution Plate rating” value (Rhizoctonia solani) was 0, the “Agar Dilution Plate rating” value (Aspergillus niger [6]) was 0 and the disease control index (Phytophthora infestans; 150 ppm) was 5. It also gave a disease control index (Phytophthora infestans; 300 ppm) of 5, a disease control index (Phytophthora infestans; 600 ppm) of 5 and a disease control index (Phytophthora infestans; 1200 ppm) of 5. For the same molecule, the “Agar Dilution Plate rating” value (Pseudomonas solaracaerum) was 0, the disease control index (Piricularia oryzae; 150 ppm) was 3 and the disease control index (Piricularia oryzae; 300 ppm) was 4. The disease control index (Piricularia oryzae; 600 ppm) was 5, the disease control index (Piricularia oryzae; 1200 ppm) was 4 and the “Antibacterial Activity rating” value (Staphylococcus aureus) was 5. The “Antibacterial Activity rating” value (Xanthomonas vesicatoria) was 5, the “Agar Dilution Plate rating” value [7] was 5 (100% effectiveness of the test compound against the specified organism) and the “Antibacterial Activity rating” value (Aerobacter aerogenes) was 5.
In the case of `CC(C)c1ccc(C(C[N+](=O)[O-])SC(=S)N(C)C)cc1` (stereo not drawn) [Example 26, p-Isopropyl-α-(nitromethyl)benzyl Dimethyldithiocarbamate], the “Agar Dilution Plate rating” value [1] is reported as 5 (100% effectiveness of the test compound against the specified organism), the disease control index (Venturia inaequalis) is reported as 5 and 0 and the “Agar Dilution Plate rating” value (Verticillium albo-atrum) is reported as 5 (100% effectiveness of the test compound against the specified organism). The “Agar Dilution Plate rating” value (Pythium de Baryanum) was 5 (100% effectiveness of the test compound against the specified organism), the “Agar Dilution Plate rating” value (Monilinia fructicola [5]) was 5 (100% effectiveness of the test compound against the specified organism) and the “Agar Dilution Plate rating” value (Fusarium lycopersici) was 0. For the same molecule, the “Agar Dilution Plate rating” value (Rhizoctonia solani) was 5 (100% effectiveness of the test compound against the specified organism), the “Agar Dilution Plate rating” value (Aspergillus niger [6]) was 0 and the disease control index (Phytophthora infestans; 150 ppm) was 3. It also gave a disease control index (Phytophthora infestans; 300 ppm) of 4, a disease control index (Phytophthora infestans; 600 ppm) of 4 and a disease control index (Phytophthora infestans; 1200 ppm) of 5. For the same molecule, the “Agar Dilution Plate rating” value (Pseudomonas solaracaerum) was 0, the disease control index (Piricularia oryzae; 150 ppm) was 4 and the disease control index (Piricularia oryzae; 300 ppm) was 4. For the same molecule, the disease control index (Piricularia oryzae; 600 ppm) was 5, the disease control index (Piricularia oryzae; 1200 ppm) was 5 and the “Antibacterial Activity rating” value (Staphylococcus aureus) was 5. The “Antibacterial Activity rating” value (Xanthomonas vesicatoria) was 0, the “Agar Dilution Plate rating” value [7] was 5 (100% effectiveness of the test compound against the specified organism) and the “Antibacterial Activity rating” value (Aerobacter aerogenes) was 0.
With `CN(C)C(=S)SC(C[N+](=O)[O-])c1ccccc1Cl` (stereo not drawn) [Example 27, o-Chloro-α-(nitromethyl)benzyl Dimethyldithiocarbamate] the “Agar Dilution Plate rating” value [1] was 5 (100% effectiveness of the test compound against the specified organism), the disease control index (Venturia inaequalis) was 5 and 0 and the inhibition at 1 ppm (Monilinia fructicola [2]) was 0%. It also gave an inhibition at 10 ppm (Monilinia fructicola [2]) of 100%, an inhibition at 100 ppm (Monilinia fructicola [2]) of 100% and an inhibition at 1 ppm (Aspergillus niger [3]) of 0%. For the same molecule, the inhibition at 10 ppm (Aspergillus niger [3]) was 100%, the inhibition at 100 ppm (Aspergillus niger [3]) was 100% and the inhibition at 100 ppm [4] was 100%. For the same molecule, the inhibition at 1 ppm [4] was 100%, the inhibition at 10 ppm [4] was 100% and the “Agar Dilution Plate rating” value (Verticillium albo-atrum) was 5 (100% effectiveness of the test compound against the specified organism). For the same molecule, the “Agar Dilution Plate rating” value (Pythium de Baryanum) was 5 (100% effectiveness of the test compound against the specified organism), the “Agar Dilution Plate rating” value (Monilinia fructicola [5]) was 5 (100% effectiveness of the test compound against the specified organism) and the “Agar Dilution Plate rating” value (Fusarium lycopersici) was 5 (100% effectiveness of the test compound against the specified organism). The “Agar Dilution Plate rating” value (Rhizoctonia solani) was 0, the “Agar Dilution Plate rating” value (Aspergillus niger [6]) was 0 and the disease control index (Phytophthora infestans; 150 ppm) was 2. It also gave a disease control index (Phytophthora infestans; 300 ppm) of 2, a disease control index (Phytophthora infestans; 600 ppm) of 4 and a disease control index (Phytophthora infestans; 1200 ppm) of 4. The “Agar Dilution Plate rating” value (Pseudomonas solaracaerum) was 0, the disease control index (Piricularia oryzae; 150 ppm) was 2 and the disease control index (Piricularia oryzae; 300 ppm) was 4. The disease control index (Piricularia oryzae; 600 ppm) was 4, the disease control index (Piricularia oryzae; 1200 ppm) was 4 and the “Antibacterial Activity rating” value (Staphylococcus aureus) was 5. For the same molecule, the “Antibacterial Activity rating” value (Xanthomonas vesicatoria) was 5, the “Agar Dilution Plate rating” value [7] was 5 (100% effectiveness of the test compound against the specified organism) and the “Antibacterial Activity rating” value (Aerobacter aerogenes) was 9.
In the case of `CN(C)C(=S)SC(C[N+](=O)[O-])c1ccc(Br)cc1` (stereo not drawn) [Example 30, p-Bromo-α-(nitromethyl)benzyl Dimethyldithiocarbamate], the “Agar Dilution Plate rating” value [1] is reported as 5 (100% effectiveness of the test compound against the specified organism), the disease control index (Venturia inaequalis) is reported as 5 and the inhibition at 1 ppm (Monilinia fructicola [2]) is reported as 100%. The inhibition at 10 ppm (Monilinia fructicola [2]) was 100%, the inhibition at 100 ppm (Monilinia fructicola [2]) was 100% and the inhibition at 1 ppm (Aspergillus niger [3]) was 0%. For the same molecule, the inhibition at 10 ppm (Aspergillus niger [3]) was 100%, the inhibition at 100 ppm (Aspergillus niger [3]) was 100% and the inhibition at 100 ppm [4] was 100%. The inhibition at 1 ppm [4] was 0%, the inhibition at 10 ppm [4] was 100% and the “Agar Dilution Plate rating” value (Verticillium albo-atrum) was 0. For the same molecule, the “Agar Dilution Plate rating” value (Pythium de Baryanum) was 5 (100% effectiveness of the test compound against the specified organism), the “Agar Dilution Plate rating” value (Monilinia fructicola [5]) was 5 (100% effectiveness of the test compound against the specified organism) and the “Agar Dilution Plate rating” value (Fusarium lycopersici) was 0. For the same molecule, the “Agar Dilution Plate rating” value (Rhizoctonia solani) was 5 (100% effectiveness of the test compound against the specified organism), the “Agar Dilution Plate rating” value (Aspergillus niger [6]) was 0 and the disease control index (Phytophthora infestans; 150 ppm) was 2. It also gave a disease control index (Phytophthora infestans; 300 ppm) of 3, a disease control index (Phytophthora infestans; 600 ppm) of 3 and a disease control index (Phytophthora infestans; 1200 ppm) of 4. For the same molecule, the “Agar Dilution Plate rating” value (Pseudomonas solaracaerum) was 0, the disease control index (Piricularia oryzae; 150 ppm) was 5 and the disease control index (Piricularia oryzae; 300 ppm) was 5. The disease control index (Piricularia oryzae; 600 ppm) was 5, the disease control index (Piricularia oryzae; 1200 ppm) was 5 and the “Antibacterial Activity rating” value (Staphylococcus aureus) was 5. For the same molecule, the “Antibacterial Activity rating” value (Xanthomonas vesicatoria) was 0, the “Agar Dilution Plate rating” value [7] was 0 and the “Antibacterial Activity rating” value (Aerobacter aerogenes) was 0.
